Data published in patent publication US20260266803A1, “Induced Pluripotent Stem Cell Model of Fibrous Dysplasia/Mccune-Albright Syndrome and Methods of Use” (The Regents of the University of California, priority 2023, published 2026).

Tested on: GNAS^R201H iPSCs
Experiment: cAMP in iPSCs stimulated with the β-adrenergic receptor agonist isoproterenol
Assay type: cell-based, human
Conditions: 10 μM isoproterenol, N=6 in two different iPSC lines
Protocol: FIGS. 3A-3C. […] Representative of n=3. (FIG. 3B) Representative western blot of pluripotent and differentiated (DDX) iPSCs showing increased pCREB and pATF1, consistent with activation of the cAMP pathway. […] N=6 in two different iPSC lines.
Initial screens with a single dose (50 μM) in our GNAS iPSCs identified several compounds with potential as molecular tools ([…].B). We found candidates that inhibited Gsα^R201H but not WT (#46, 47, 43, 2). […] While not desirable for treating FD/MAS or GNAS hyperactivation, these may be useful for treating diseases of GNAS loss of function (e.g., Albright's hereditary osteodystrophy).

CC(C)NCC(O)c1ccc(O)c(O)c1 (stereo not shown) [isoproterenol]
differences in cAMP from baseline: increased differences in cAMP from baseline
